Assay results as given in PubChem BioAssay AID493108 (The Scripps Research Institute Molecular Screening Center, 2011).
The source made the active and inactive calls. How the calls were made is not given here.

Legend:
Test in all cases: LYPLA1 and LYPLA2 inhibition in cells, late-stage follow-up, cell-based, gel-based ABPP, fluorescence (AID 493108)
Conditions in all cases: competitive ABPP fluorescence gel, serine hydrolase inhibition, at 0.03 µM, active compounds read high
[1] = test system: LYPLA2
[2] = test system: ABHD11
[3] = test system: LYPLA1

| inhibition [1] | inhibition [2] | inhibition [3] | SMILES |
| --- | --- | --- | --- |
| 0% (inactive) | 100% | 0% (inactive) | CCC1CCCCN1C(=O)n1ncc(C(O)(c2ccccc2)c2ccccc2)n1 (centres undefined) |
| 100% | 100% | 100% | CC(C)(O)c1cnn(C(=O)N2CCC(C(C)(C)C)CC2)n1 |
| 100% | 100% | 100% | CC(C)(C)C1CCN(C(=O)n2ncc(C(O)(c3ccccc3)c3ccccc3)n2)CC1 |
